pIC50: −log10 of the molar value.
Tests used:
Assay in all cases: Biomarker study proliferation (CellTiter-Glo)
Format in all cases: cell-based
ZR751 = test system: ZR751
Method: (§1) Cancer cell lines are profiled to evaluate the anti-proliferative activity of a test compound in-vitro. Mutation, copy number and gene expression information of ARID1A, KMT2C, KMT2D and/or RB1 genes across cancer cell lines is obtained from COSMIC database (cancer.sanger.ac.uk) and cBioportal (http://www.cbioportal.org/). Cells are cultured in growth medium and plated into a 96-well plate in 100 μL/well growth medium at 5000 cells/well then incubated at 37° C., 5% CO2 overnight. Cells are cultured using supplier recommended media and conditions well known in the art, for example with RPMI 1640 with or without HEPES & L-Glutamine (Thermo SH30255.01) and 1 mM Sodium Pyruvate, and 10% FBS(Gibco cat #10082). The 1000× intermediate dilution plate is prepared by making a 10 mM working solution of a test sample in DMSO and performing 1:3 dilutions in DMSO for 10 points. The 10× dosing plate is prepared by adding 2 μL from the 1000× intermediate dilution plate to 198 μL of OPTIMEM®+10% FBS and mixing well. The cell plate is then treated by adding 11 μL from the 10× dosing plate into the 100 μL/well cell plate for a 1× final concentration. Staurosporine is used as a maximum growth inhibition control at a final concentration of 5 μM. The cell plate is incubated for 7 days at 37° C., 5% CO2. Seven days after treatment, Cell Titer-Glo® (Promega cat #G7571) assay buffer and substrate are removed from −20° C. and allowed to equilibrate to RT. Assay buffer is added to the substrate and swirled gently to mix. The CELL TITER-GLO® reagent (100 μL/well) is added to the cell plate and incubated at RT for 15 minutes. After 15 minutes, luminescence is read using a plate reader. Data is analyzed in Excel and graphed in GraphPad Prism. Statistical analysis and p value is calculated using Mann-Whitney nonparameteric t tests using GraphPad Prism.
(§2) Anti-proliferative effects of a test compound are categorized as insensitive (IC50≥1 μM), cytostatic (IC50<1 μM and % inhibition <70%) or cytotoxic (IC50<1 μM and % inhibition ≥70%).

NCIH524 = test system: NCIH524
Method: as §1, §2

MDAMB468 = test system: MDAMB468
Method: as §1, §2

AZ521 = test system: AZ521
Method: as §1, §2

SNU449 = test system: SNU449
Method: as §1, §2

SiHa = test system: SiHa
Method: as §1, §2

MKN7 = test system: MKN7
Method: as §1, §2

NCIH727 = test system: NCIH727
Method: as §1, §2

A549 = test system: A549
Method: as §1, §2

THP1 = test system: THP1
Method: as §1, §2

OVCAR5 = test system: OVCAR5
Method: as §1, §2

T84 = test system: T84
Method: as §1, §2

LN229 = test system: LN229
Method: as §1, §2

SNU869 = test system: SNU869
Method: as §1, §2

KYSE520 = test system: KYSE520
Method: as §1, §2

CACO2 = test system: CACO2
Method: as §1, §2

NCIH1436 = test system: NCIH1436
Method: as §1, §2

CCRFCEM = test system: CCRFCEM
Method: as §1, §2

Which results are given for `Cc1cc(NC2CCN(C(=O)O[C@H]3CCN(C(=O)/C=C/CN(C)C)C3)CC2)n2ncc(C(C)C)c2n1` [Example 1, [(3S)-1-[(E)-4-(dimethylamino)but-2-enoyl]pyrrolidin-3-yl] 4-[(3-isopropyl-5-methyl-pyrazolo[1,5-a]pyrimidin-7-yl)amino]piperidine-1-carboxylate]?
pIC50 (ZR751; Homo sapiens, ZR-75-1, 168 h, read-out: Anti-proliferation effect IC50): 7.37; Anti-proliferation effect % Inh. (ZR751; ZR751, BREAST, 7 days): 69%; Anti-proliferation effect Outcome (ZR751; ZR751, BREAST, 7 days): Cytostatic (cytostatic (IC50<1 μM and % inhibition <70%)); pIC50 (NCIH524; Homo sapiens, NCI-H524, 168 h, read-out: Anti-proliferation effect IC50): 7.43; Anti-proliferation effect % Inh. (NCIH524; NCIH524, LUNG, 7 days): 92%; Anti-proliferation effect Outcome (NCIH524; NCIH524, LUNG, 7 days): Cytotoxic (cytotoxic (IC50<1 μM and % inhibition ≥70%)); pIC50 (MDAMB468; Homo sapiens, MDA-MB-468, 168 h, read-out: Anti-proliferation effect IC50): 8.10; Anti-proliferation effect % Inh. (MDAMB468; MDAMB468, BREAST, 7 days): 100%; Anti-proliferation effect Outcome (MDAMB468; MDAMB468, BREAST, 7 days): Cytotoxic (cytotoxic (IC50<1 μM and % inhibition ≥70%)); Anti-proliferation effect % Inh. (AZ521; AZ521, STOMACH, 7 days): 76%; Anti-proliferation effect Outcome (AZ521; AZ521, STOMACH, 7 days): Cytotoxic (cytotoxic (IC50<1 μM and % inhibition ≥70%)); pIC50 (AZ521; Homo sapiens, AZ-521, 168 h, read-out: Anti-proliferation effect IC50): 7.44; pIC50 (SNU449; Homo sapiens, SNU-449, 168 h, read-out: Anti-proliferation effect IC50): 5.82; Anti-proliferation effect % Inh. (SNU449; SNU449, LIVER, 7 days): 8%; Anti-proliferation effect Outcome (SNU449; SNU449, LIVER, 7 days): Insensitive (insensitive (IC50≥1 μM)); Anti-proliferation effect % Inh. (SiHa; CERVIX, 7 days): 58%; Anti-proliferation effect Outcome (SiHa; ENDOMETRIUM, 7 days): Cytostatic (cytostatic (IC50<1 μM and % inhibition <70%)); pIC50 (SiHa; Homo sapiens, 168 h, read-out: Anti-proliferation effect IC50): 6.98; pIC50 (MKN7; Homo sapiens, MKN-7, 168 h, read-out: Anti-proliferation effect IC50): < 5.00; Anti-proliferation effect % Inh. (MKN7; MKN7, STOMACH, 7 days): 39%; Anti-proliferation effect Outcome (MKN7; MKN7, STOMACH, 7 days): Insensitive (insensitive (IC50≥1 μM)); pIC50 (NCIH727; Homo sapiens, NCI-H727, 168 h, read-out: Anti-proliferation effect IC50): 6.93; Anti-proliferation effect % Inh. (NCIH727; NCIH727, LUNG, 7 days): 56%; Anti-proliferation effect Outcome (NCIH727; NCIH727, LUNG, 7 days): Cytostatic (cytostatic (IC50<1 μM and % inhibition <70%)); Anti-proliferation effect % Inh. (A549; A549, LUNG, 7 days): 64%; Anti-proliferation effect Outcome (A549; A549, LUNG, 7 days): Cytostatic (cytostatic (IC50<1 μM and % inhibition <70%)); pIC50 (A549; Homo sapiens, A549, 168 h, read-out: Anti-proliferation effect IC50): 6.86; pIC50 (THP1; Homo sapiens, THP-1, 168 h, read-out: Anti-proliferation effect IC50): 7.38; Anti-proliferation effect % Inh. (THP1; THP1, BLOOD, 7 days): 81%; Anti-proliferation effect Outcome (THP1; THP1, BLOOD, 7 days): Cytotoxic (cytotoxic (IC50<1 μM and % inhibition ≥70%)); pIC50 (OVCAR5; Homo sapiens, OVCAR-5, 168 h, read-out: Anti-proliferation effect IC50): 7.07; Anti-proliferation effect % Inh. (OVCAR5; OVCAR5, OVARY, 7 days): 74%; Anti-proliferation effect Outcome (OVCAR5; OVCAR5, OVARY, 7 days): Cytotoxic (cytotoxic (IC50<1 μM and % inhibition ≥70%)); pIC50 (T84; Homo sapiens, T84, 168 h, read-out: Anti-proliferation effect IC50): 6.51; Anti-proliferation effect % Inh. (T84; T84, INTESTINE, 7 days): 61%; Anti-proliferation effect Outcome (T84; T84, INTESTINE, 7 days): Cytostatic (cytostatic (IC50<1 μM and % inhibition <70%)); pIC50 (LN229; Homo sapiens, LN-229, 168 h, read-out: Anti-proliferation effect IC50): 7.44; Anti-proliferation effect % Inh. (LN229; LN229, CNS, 7 days): 63%; Anti-proliferation effect Outcome (LN229; LN229, CNS, 7 days): Cytostatic (cytostatic (IC50<1 μM and % inhibition <70%)); pIC50 (SNU869; 168 h, read-out: Anti-proliferation effect IC50): 7.28; Anti-proliferation effect % Inh. (SNU869; SNU869, BILIARY, 7 days): 60%; Anti-proliferation effect Outcome (SNU869; SNU869, BILIARY, 7 days): Cytostatic (cytostatic (IC50<1 μM and % inhibition <70%)); pIC50 (KYSE520; Homo sapiens, KYSE-520, 168 h, read-out: Anti-proliferation effect IC50): < 5.00; Anti-proliferation effect % Inh. (KYSE520; KYSE520, OESOPHAGUS, 7 days): 50%; Anti-proliferation effect Outcome (KYSE520; KYSE520, OESOPHAGUS, 7 days): Insensitive (insensitive (IC50≥1 μM)); Anti-proliferation effect % Inh. (CACO2; CACO2, INTESTINE, 7 days): 60%; Anti-proliferation effect Outcome (CACO2; CACO2, INTESTINE, 7 days): Cytostatic (cytostatic (IC50<1 μM and % inhibition <70%)); pIC50 (CACO2; Homo sapiens, Caco-2, 168 h, read-out: Anti-proliferation effect IC50): 6.72; pIC50 (NCIH1436; Homo sapiens, NCI-H1436, 168 h, read-out: Anti-proliferation effect IC50): 6.71; Anti-proliferation effect % Inh. (NCIH1436; NCIH1436, LUNG, 7 days): 56%; Anti-proliferation effect Outcome (NCIH1436; NCIH1436, LUNG, 7 days): Cytostatic (cytostatic (IC50<1 μM and % inhibition <70%)); Anti-proliferation effect % Inh. (CCRFCEM; CCRFCEM, BLOOD, 7 days): 96%; Anti-proliferation effect Outcome (CCRFCEM; CCRFCEM, BLOOD, 7 days): Cytotoxic (cytotoxic (IC50<1 μM and % inhibition ≥70%)); pIC50 (CCRFCEM; Homo sapiens, CCRF-CEM, 168 h, read-out: Anti-proliferation effect IC50): 7.40
